Reference: patent US11219603B2, “Stable dosage form of etidronate-cytarabine conjugate, and use thereof” (MAXWELL BIOTECH GROUP LTD., priority 2015, dated 2022)

Assays:
Format in all cases: physicochemical
[1] = Thermal behaviour of solutions for lyophilization (DSC); details: for Thermal effect (event), in words: wrapped cell reads 'Tgt/endothermicity before alloy expansion'
Text: The thermal properties of the solutions provided for lyophilization were investigated. Differential Scanning calorimetry (DSC) was used to identify the lowest possible transient temperature in the solution throughout the entire lyophilization process, including freezing and dehydration. For the solutions of most pharmaceutical products, this parameter is represented by the glass transition temperature or “Tgt”. All components and their amounts in the solution contribute to the final value of Tgt. This temperature is usually several degrees below the temperature at which the sintered material can crumble during the lyophilization process (collapse temperature, Tc). Without determining the collapse temperature by such methods as cryomicroscopy, the glass transition temperature can be used to select the primary drying temperature. Until the primary drying is completed, the initial drying temperature should be set in such a manner that there are no vials for which the glass transition temperature has been exceeded (or Tc, if known). Otherwise, the structure of the sintered material may get broken. On the one hand, the lyophilization temperature should be close to Tgt, so that the process proceeds efficiently, and on the other hand, it cannot exceed Tgt due to process requirements and qualitative product parameters. Thus, the values of collapse and glass transition temperature are important parameters for calculating safe upper temperature limits, which can be used for lyophilization.
Based on the proposed filling of the vials with the drug (100 mg of active ingredient per vial), potential solutions for filling were prepared. The excipients included sterile water for injection (SWFI), 50 mM succinate and tartrate buffers at pH 5, MgCl2, sulfobutylether β-cyclodextrin (SBEβCD), mannitol and dextran 40. In addition, for solutions containing mannitol, a study of the effect of the annealing stage (the lyophilization process stage when the samples are kept at a certain temperature below the freezing point for a certain period of time) on the improvement the crystallinity of the finished product was performed. […]

[2] = Physical and hydrolytic stability of reconstituted lyophilizates in intravenous media; details: reconstituted lyophilizate, low dose in D5W, 25° C., 6 hours
Description: The lyophilized dosage form was evaluated for compatibility with three different media for intravenous administration within 24 hours: sterile water for injection (SWFI), D5W and 0.9% sodium chloride solution. […] The lyophilized dosage form was first dissolved in 5 mL SWFI to the MBC-11 trisodium salt concentration of 20 mg/mL, and then it was placed in glass vials and diluted with each medium for intravenous administration until the infusion doses under study were obtained. The solutions thus obtained were kept at 2-8° C. and 25° C. for 24 hours, and the evaluation of the samples in appearance, content and purity at the points t=0, 2, 4, 6 and 24 hours was performed.
At each control point, solutions for intravenous administration with a high dosage were evaluated in appearance, after which they were diluted to a nominal analytical concentration of 1 mg/mL with a solvent used in the analytical method for evaluating the substance purity. The samples thus obtained were used to determine the purity and content of the active pharmaceutical ingredient.

[3] = Hydrolysis rate constant with MgCl2 or CaCl2 as stabilizer; details: for hydrolysis rate constant (K): in water
Text: The use of calcium chloride as a stabilizer against hydrolytic decomposition in both buffer solutions and water was also investigated; the hydrolysis rate constant was compared with the constant for MgCl2. […] If molar ratios were less than 2:1, the hydrolysis rate was lower for solutions containing MgCl2.

[4] = Compatibility with media for intravenous administration (Ara-CMP increase); details: 25 mg/mL MBC-11, MgCl2:MBC-11 2:1, dextran 5%, diluted to 1 mg/mL in D5W; within one day
[5] = SWFI, MBC-11 25 mg/mL, MgCl2 43.25 mmol/L, Mannitol 25 mg/mL, Annealing at −20° C.
[6] = SWFI, MBC-11 25 mg/mL, MgCl2 43.25 mmol/L, Mannitol 25 mg/mL, Annealing at −24° C.
[7] = SWFI, MBC-11 25 mg/mL, MgCl2 43.25 mmol/L, pH 4.59
[8] = SWFI, MBC-11 50 mg/mL, MgCl2 86.5 mmol/L, pH 4.52
[9] = Succinate buffer, MBC-11 25 mg/mL, MgCl2 86.5 mmol/L, pH 4.52
[10] = Tartrate buffer, MBC-11 25 mg/mL, MgCl2 86.5 mmol/L, pH 4.48

For `CC(O)(P(=O)(O)O)P(=O)(O)OP(=O)(O)OC[C@H]1O[C@@H](n2ccc(N)nc2=O)[C@@H](O)[C@@H]1O` (some centres unmarked) [MBC-11], the “Thermal effect (event): Tgt” value ([1]; SWFI, MBC-11 25 mg/mL, MgCl2 43.25 mmol/L, Dextran-40 5%) was −21 °C (Tgt), the “Thermal effect (event): possible crystallization” value ([1]; SWFI, MBC-11 25 mg/mL, MgCl2 43.25 mmol/L, Mannitol 25 mg/mL) was “at −27 °C” and the “Thermal effect (event): crystallization after temperature processing” value [1, 5] was “None”. For the same compound, the “Thermal effect (event): specific endothermicity” value [1, 5] was −22 °C, the “Thermal effect (event): crystallization after annealing” value [1, 6] was “None” and the “Thermal effect (event): weak endothermicity” value [1, 6] was −22 °C. The “Thermal effect (event): Tgt” value [1, 7] was −22 °C (Tgt), the “Thermal effect (event): endotherm” value [1, 7] was −21 °C and the “Thermal effect (event): Tgt” value ([1]; SWFI, MBC-11 25 mg/mL, MgCl2 86.5 mmol/L, Dextran-40 5%) was −27 °C (Tgt). The “Thermal effect (event), in words” value ([1]; SWFI, MBC-11 25 mg/mL, MgCl2 86.5 mmol/L, Mannitol 25 mg/mL) was “Tgt/endothermicity”, the “Thermal effect (event): endothermicity” value ([1]; SWFI, MBC-11 25 mg/mL, MgCl2 86.5 mmol/L, pH 4.35) was −26 °C and the “Thermal effect (event): Tgt” value ([1]; SWFI, MBC-11 50 mg/mL, 20% SBEβCD) was −26 °C (Tgt). The “Thermal effect (event): Tgt” value ([1]; SWFI, MBC-11 50 mg/mL, MgCl2 86.5 mmol/L, Dextran-40 5%) was −24 °C (Tgt), the “Thermal effect (event), in words” value ([1]; SWFI, MBC-11 50 mg/mL, MgCl2 86.5 mmol/L, Mannitol 25 mg/mL) was “Tgt/endothermicity” and the “Thermal effect (event): Tgt” value [1, 8] was −34 °C (Tgt). The “Thermal effect (event): endothermicity” value [1, 8] was −21 °C, the “Thermal effect (event): Tgt” value ([1]; SWFI, MBC-11 50 mg/mL, MgCl2 173 mmol/L, Dextran-40 5%) was −36 °C (Tgt) and the “Thermal effect (event), in words” value ([1]; SWFI, MBC-11 50 mg/mL, MgCl2 173 mmol/L, Mannitol 25 mg/mL) was “Tgt/endothermicity”. The “Thermal effect (event): endothermicity” value ([1]; SWFI, MBC-11 50 mg/mL, MgCl2 173 mmol/L, pH 4.23) was −26 °C, the “Thermal effect (event): Tgt” value ([1]; SWFI, MBC-11 50 mg/mL, no excipient, pH 5.2) was −21 °C (Tgt) and the “Thermal effect (event): endothermicity” value ([1]; SWFI, MBC-11 100 mg/mL, MgCl2 173 mmol/L) was −22 °C. The “Thermal effect (event): Tgt” value ([1]; SWFI, MBC-11 100 mg/mL, MgCl2 173 mmol/L, Dextran-40 5%) was −29 °C (Tgt), the “Thermal effect (event): endothermicity” value ([1]; SWFI, MBC-11 100 mg/mL, MgCl2 350 mmol/L) was −26 °C and the “Thermal effect (event): Tgt” value ([1]; SWFI, MBC-11 100 mg/mL, no excipient, pH 5.4) was −21 °C (Tgt). For the same compound, the “Thermal effect (event): Tgt” value ([1]; Succinate buffer, MBC-11 25 mg/mL, MgCl2 86.5 mmol/L, Dextran-40 5%) was −30 °C (Tgt), the “Thermal effect (event), in words” value ([1]; Succinate buffer, MBC-11 25 mg/mL, MgCl2 86.5 mmol/L, Mannitol 25 mg/mL) was “Tgt/endothermicity” and the “Thermal effect (event): crystallization” value [1, 9] was −34 °C. For the same compound, the “Thermal effect (event): endothermicity” value [1, 9] was −26 °C, the “Thermal effect (event): Tgt” value ([1]; Tartrate buffer, MBC-11 25 mg/mL, MgCl2 86.5 mmol/L, Dextran-40 5%) was −26 °C (Tgt) and the “Thermal effect (event): Tgt” value ([1]; Tartrate buffer, MBC-11 25 mg/mL, MgCl2 86.5 mmol/L, Mannitol 25 mg/mL) was −40 °C (Tgt). The “Thermal effect (event): Tgt” value [1, 10] was −40 °C (Tgt), the “Thermal effect (event): crystallization” value [1, 10] was −30 °C and the “Thermal effect (event): endothermicity” value [1, 10] was −22 °C. For the same compound, the “increase in the Ara-CMP content” value [2] was 0.5%, the “slowdown in the hydrolysis reaction” value ([3]; divalent metal salts added to aqueous solution in molar ratio 2:1) was 90% and the “hydrolysis rate constant (K)” value ([3]; molar ratio CaCl2 to MBC-11 2:1) was 0.0005. The “hydrolysis rate constant (K)” value ([3]; molar ratio MgCl2 to MBC-11 2:1) was 0.0005 and the “increase in Ara-CMP content” value [4] was 1%.
